The values below come from US10434167B2 (priority 2014, dated 2019).

For this data set, the system named is Human red blood cells. Briefly: Hemolytic assay (hemolysis of red blood cells by QS-21/saponin with or without liposomes). The settings on record: 22° C. The data set is classed as cell-based. An excerpt: Hemolysis of red blood cells was used as a measure both of the relative amount of free QS-21, and of the toxicity of QS-21 under the indicated experimental conditions. Human red blood cells were purchased from the Research Blood Components LLC (Boston, Mass., USA) under a Walter Reed Army institute of Research protocol reviewed by the independent Institutional Review Board, Division of Human Subjects. Erythrocytes were washed with PBS and were quantified by a Beckman Coulter counter model ACT10 (Indianapolis Ind., USA). In each assay of this study, hemolytic activity of QS-21 incubated with or without liposomes was determined in 220 μl volume and each step of the assay was performed at room temperature (22° C.). One hundred microliters of QS-21 dilution was incubated with 100 μl of liposomes, or PBS only, on a Daigger Rocker (Vernon Hills, Ill., USA) for 15 minutes. After mixing the liposomes, 2×10^7 erythrocytes in 20 μl of PBS were added to the mixture and incubated on a Daigger Rocker for an additional 30 minutes. Plates were centrifuged at 800×g for 6 min. Supernatant was transferred to a polystyrene 96-well plate, and absorbance was read at 541 nm. Hemolysis by QS-21 binding to liposomal Chol was expressed as % of maximum hemolysis by free QS-21.
The hemolytic activities of liposome compositions with QS-21 were characterized first by varying QS-21 concentration. […] Red blood cells were added to the mixture of liposome-QS-21, and incubated for 30 minutes. Free QS-21 served as positive control. Cells were centrifuged and the optical density of supernatant was measured at 541 nm to reflect the levels of hemolysis.

Take QS-21: the “amount of QS-21 causing maximum hemolysis” value runs as follows: (QS-21 pre-incubated with DMPC/DMPG liposomes (5 μmol phospholipids) containing 33.7 mol % Chol) “approximately 4 μg”; (QS-21 pre-incubated with DMPC/DMPG liposomes (5 μmol phospholipids) containing 43 mol % Chol) “approximately 4 μg”; (free QS-21, no liposomes) “approximately 2 μg”. For the same substance, for the setting “QS-21 pre-incubated with DMPC/DMPG liposomes (5 μmol phospholipids) having 55 mol % Chol”, the “amount of QS-21 up to which the hemolytic effect was completely blocked” value is at least 200 µg.
